According to US20260042764A1, “COMPOSITIONS AND METHODS FOR INHIBITION OF KRAS” (TheRas, Inc., priority 2022, published 2026):
pIC50: −log10 of the molar value.

Columns and labels:
[1] = molecular target: T1, Avi-KRAS G12V (1-169) GppNHp/RAF1 RBD-3xFLAG (52-151) (Homo sapiens, UniProt P01116, G12V); assay: Raf1-KRAS G12V-GppNHP disruption HTRF assay (Biological Example 1); type: binding
T1 construct: Avi-KRAS G12V (1-169)
Method in brief: (§1)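 Percent activity versus DMSO (100%) was derived from HTRF signal after KRAS–RAF1 RBD protein mix was incubated 1 h at room temperature with shaking and detection reagents were added for a further 1 h.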

[2] = molecular target: T2, Avi-KRAS G12R (1-169) GppNHp/RAF1 RBD-3xFLAG (52-151) (Homo sapiens, UniProt P01116, G12R); assay: Raf1-KRAS G12R-GppNHP disruption HTRF assay (Biological Example 1); type: binding
T2 construct: Avi-KRAS G12R (1-169)
T2 sequence (P01116 1-169 isoform P01116-2 G12R): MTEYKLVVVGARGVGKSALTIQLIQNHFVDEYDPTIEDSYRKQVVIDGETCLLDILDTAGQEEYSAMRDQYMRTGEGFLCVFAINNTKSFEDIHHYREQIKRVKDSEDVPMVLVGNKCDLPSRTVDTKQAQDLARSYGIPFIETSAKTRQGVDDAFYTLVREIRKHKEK
Method in brief: as §1

[3] = molecular target: T3, Avi-KRAS G12D (1-169) GppNHp/RAF1 RBD-3xFLAG (52-151) (Homo sapiens, UniProt P01116, G12D); assay: Raf1-KRAS G12D-GppNHP disruption HTRF assay (Biological Example 1); type: binding
T3 construct: Avi-KRAS G12D (1-169)
T3 sequence (P01116 1-169 isoform P01116-2 G12D): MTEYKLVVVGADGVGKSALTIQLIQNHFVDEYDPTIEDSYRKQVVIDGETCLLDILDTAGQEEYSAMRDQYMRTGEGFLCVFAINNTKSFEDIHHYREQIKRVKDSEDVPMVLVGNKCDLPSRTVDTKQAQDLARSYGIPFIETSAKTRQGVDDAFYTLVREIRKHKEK
Method in brief: as §1

[4] = molecular target: T4, Avi-KRAS WT (1-169) GppNHp/RAF1 RBD-3xFLAG (52-151) (Homo sapiens, UniProt P01116); assay: Raf1-KRAS WT-GppNHP disruption HTRF assay (Biological Example 1); type: binding
T4 construct: Avi-KRAS WT (1-169)
T4 sequence (P01116 1-169 isoform P01116-2): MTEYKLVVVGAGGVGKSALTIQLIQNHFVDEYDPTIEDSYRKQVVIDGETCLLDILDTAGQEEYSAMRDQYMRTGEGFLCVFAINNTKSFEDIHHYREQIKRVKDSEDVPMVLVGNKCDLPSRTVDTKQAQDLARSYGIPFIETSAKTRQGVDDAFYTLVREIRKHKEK
Method in brief: as §1

SW620 cells (KRAS G12V) = assay: Cell-based pERK HTRF assay in SW620 cell (Biological Example 4); conditions: pERK HTRF
Method in brief: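 In SW620 cells grown in RPMI with 10% FBS, a 4 h compound treatment (0.25% DMSO, 9-point curve from 1 μM) preceded lysis. Phospho-ERK levels were then read by time-resolved FRET at 615 nm emission.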

GP2d cells (KRAS G12D) = assay: Cell-based pERK HTRF assay in GP2d cell (Biological Example 2); conditions: GP2d (KRAS G12D) cells, pERK HTRF
Method in brief: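 Cells grown in DMEM with 10% FBS were exposed to compound for 60 min at 0.25% DMSO, using a 9-point half-log series starting at 1 μM or 100 nM. Lysates were then mixed with d2 and Eu cryptate antibodies for 4–24 h at room temperature, and pERK was read by HTRF.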

[5] = KRAS G12V, GppNHp-loaded, class symbols
[6] = KRAS G12R, GppNHp-loaded, class symbols
[7] = KRAS G12D, GppNHp-loaded, class symbols
[8] = KRAS WT, GppNHp-loaded, class symbols
[9] = Homo sapiens, SW-620, SW620 (KRAS G12V) cells, class symbols
[10] = Homo sapiens, SW-620, SW620 (KRAS G12V) cells

T1 sequence (P01116 1-169 isoform P01116-2 G12V): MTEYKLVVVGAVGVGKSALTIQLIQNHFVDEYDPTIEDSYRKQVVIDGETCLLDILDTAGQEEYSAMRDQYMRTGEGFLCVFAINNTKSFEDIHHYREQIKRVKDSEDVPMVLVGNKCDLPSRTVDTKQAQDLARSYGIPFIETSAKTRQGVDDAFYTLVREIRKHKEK

Compound | pIC50 [1, 5] | pIC50 [2, 6] | pIC50 [3, 7] | pIC50 [4, 8] | pIC50 (SW620 cells (KRAS G12V); [9]) | pIC50 (GP2d cells (KRAS G12D); GP2d, class symbols) | pIC50 ([1]; KRAS G12V-GppNHp/RAF1 RBD HTRF) | pIC50 ([2]; KRAS G12R-GppNHp/RAF1 RBD HTRF) | pIC50 ([3]; KRAS G12D-GppNHp/RAF1 RBD HTRF) | pIC50 ([4]; KRAS WT-GppNHp/RAF1 RBD HTRF) | pIC50 (SW620 cells (KRAS G12V); SW620 (KRAS G12V) cells) | pIC50 (GP2d cells (KRAS G12D)) | pIC50 (SW620 cells (KRAS G12V); [10]) | pIC50 (GP2d cells (KRAS G12D); GP2d)
CCN(c1nc(OC[C@@]23CCCN2C[C@H](F)C3)nc2c(F)c(-c3ccc(F)c4sc(N)c(C#N)c34)c(C(F)(F)F)cc12)[C@H]1C[C@@H]2CCOC(=O)N2C1 (atropisomer, axis not shown) [Compound 665] | 6.00 to 7.00 | 6.00 to 7.00 | 6.00 to 7.00 | 6.00 to 7.00 | > 7.00 | > 7.00 | – | – | – | – | – | – | – | –
N#Cc1c(N)sc2c(F)ccc(-c3c(C(F)(F)F)cc4c(N5C[C@H]6C[C@@H]5CO6)nc(OC[C@@]56CCCN5C[C@H](F)C6)nc4c3F)c12 (single isomer, unassigned) [Compound 288] | – | – | – | – | – | – | < 5.00 | < 5.00 | < 5.00 | < 5.00 | 6.00 to 7.00 | 6.00 to 7.00 | – | –
CN(C)C(=O)c1cnn2c1CN(c1nc(OC[C@@]34CCCN3C[C@H](F)C4)nc3c(F)c(-c4ccc(F)c5sc(N)c(C#N)c45)c(C(F)(F)F)cc13)CC2 [Compound 353] | – | – | – | – | – | – | 5.00 to 6.00 | 5.00 to 6.00 | 6.00 to 7.00 | 5.00 to 6.00 | – | – | > 7.00 | > 7.00
CCN(c1nc(OC[C@@]23CCCN2C[C@H](F)C3)nc2c(F)c(-c3ccc(F)c4sc(N)c(C#N)c34)c(C(F)(F)F)cc12)[C@H]1C[C@@H](COC)N(C(=O)N(C)C)C1 (atropisomer, axis not shown) [Compound 713] | 6.00 to 7.00 | 6.00 to 7.00 | 6.00 to 7.00 | 6.00 to 7.00 | > 7.00 | > 7.00 | – | – | – | – | – | – | – | –
CC(=O)N1CC[C@@](C)(N(C)c2nc(OC[C@@]34CCCN3C[C@H](F)C4)nc3c(F)c(-c4ccc(F)c5sc(N)c(C#N)c45)c(C(F)(F)F)cc23)[C@H]1C [Compound 342] | – | – | – | – | – | – | 5.00 to 6.00 | 5.00 to 6.00 | 5.00 to 6.00 | 6.00 to 7.00 | – | – | 6.00 to 7.00 | > 7.00
C[C@H]1CN(c2nc(OC[C@@]34CCCN3C[C@H](F)C4)nc3c(F)c(-c4ccc(F)c5sc(N)c(C#N)c45)c(C(F)(F)F)cc23)Cc2cc(C(=O)N(C)C)nn21 [Compound 402] | – | – | – | – | – | – | 6.00 to 7.00 | 6.00 to 7.00 | 6.00 to 7.00 | 5.00 to 6.00 | – | – | > 7.00 | > 7.00

Continued, values first:

pIC50 [1, 5] | pIC50 [2, 6] | pIC50 [3, 7] | pIC50 [4, 8] | pIC50 (SW620 cells (KRAS G12V); [9]) | pIC50 (GP2d cells (KRAS G12D); GP2d, class symbols) | pIC50 ([1]; KRAS G12V-GppNHp/RAF1 RBD HTRF) | pIC50 ([2]; KRAS G12R-GppNHp/RAF1 RBD HTRF) | pIC50 ([3]; KRAS G12D-GppNHp/RAF1 RBD HTRF) | pIC50 ([4]; KRAS WT-GppNHp/RAF1 RBD HTRF) | pIC50 (SW620 cells (KRAS G12V); SW620 (KRAS G12V) cells) | pIC50 (GP2d cells (KRAS G12D)) | pIC50 (SW620 cells (KRAS G12V); [10]) | pIC50 (GP2d cells (KRAS G12D); GP2d) | Compound
> 7.00 | > 7.00 | > 7.00 | > 7.00 | > 7.00 | > 7.00 | – | – | – | – | – | – | – | – | CCN(c1nc(OC[C@@]23CCCN2C[C@H](F)C3)nc2c(F)c(-c3ccc(F)c4sc(N)c(C#N)c34)c(C(F)(F)F)cc12)[C@@H]1CCN(C(=O)[C@@H](C)OC)[C@@H]1C (atropisomer, axis not shown) [Compound 807]
> 7.00 | > 7.00 | > 7.00 | > 7.00 | > 7.00 | > 7.00 | – | – | – | – | – | – | – | – | CCN(c1nc(OC[C@@]23CCCN2C[C@H](F)C3)nc2c(F)c(-c3ccc(F)c4sc(N)c(C#N)c34)c(C(F)(F)F)cc12)[C@H]1CCN(C(=O)O[C@H]2CCOC2)[C@@H]1C (atropisomer, axis not shown) [Compound 810]
6.00 to 7.00 | > 7.00 | > 7.00 | > 7.00 | > 7.00 | > 7.00 | – | – | – | – | – | – | – | – | CCN(c1nc(OC[C@@]23CCCN2C[C@H](F)C3)nc2c(F)c(-c3ccc(F)c4sc(N)c(C#N)c34)c(C(F)(F)F)cc12)[C@H]1CCN(C(=O)[C@H](C)CF)C1 (atropisomer, axis not shown) [Compound 790]
6.00 to 7.00 | 6.00 to 7.00 | 6.00 to 7.00 | 5.00 to 6.00 | 6.00 to 7.00 | > 7.00 | – | – | – | – | – | – | – | – | Cc1ccc(CN(C)c2nc(OC[C@@]34CCCN3C[C@H](F)C4)nc3c(F)c(-c4ccc(F)c5sc(N)c(C#N)c45)c(C(F)(F)F)cc23)c(N)n1 (atropisomer, axis not shown) [Compound 736]
> 7.00 | > 7.00 | > 7.00 | > 7.00 | > 7.00 | > 7.00 | – | – | – | – | – | – | – | – | CCN(c1nc(OC[C@@]23CCCN2C[C@H](F)C3)nc2c(F)c(-c3ccc(F)c4sc(N)c(C#N)c34)c(C(F)(F)F)cc12)[C@H]1CCN(C(=O)N2CC3(CC3)C2)C1 (atropisomer, axis not shown) [Compound 793]
